This is an account of results in patent US20090036498A1, “FLY CONTROL METHOD” (priority 2007, published 2009).

Assay [1] deals with Adult L. serricata (blowflies). As to the kind of experiment: Test A: adult blowflies on blood agar containing test compound, number of dead flies scored. The assay is classed as in vivo, Lucilia sericata. To be noted: 4 flies in test; for Number dead flies at 2 hours: scored at 2 hours; for Number dead flies at 4 hours: scored at 4 hours; for Number dead flies at 24 hours: scored at 24 hours. How it is done:
Adult L. serricata (blowflies): Adult flies are placed on beds of blood agar (in individual test wells; 4 flies per well) in which test compound (3-bromo-1-(3-chloro-2-pyridinyl)-N-[4-cyano-2-methyl-6-[(methylamino)carbonyl]phenyl]-1H-pyrazole-5-carboxamide) was dissolved/suspended prior to hardening of agar. Flies can take up test compound by both ingestion and contact. Assays are scored by number of dead flies at 2 hours, 4 hours, and 24 hours.

The subject of assay [2] is Newly emerged larvae of blowfly, Lucilica sericata. In words: Blowfly larvae on filter paper discs with test compound mixed in dried blood bovine serum, mortality. To be noted: Lucilia sericata, assessed at 24 hours, four replicates per data point. The assay is classed as in vivo. How it is done: L. serricata (Insect; Blowfly) Larvae.
Test compound (3-bromo-1-(3-chloro-2-pyridinyl)-N-[4-cyano-2-methyl-6-[(methylamino)-carbonyl]phenyl]-1H-pyrazole-5-carboxamide) was mixed with dried blood bovine serum and placed on filter paper discs. Newly emerged larvae of blowfly, Lucilica sericata were added to the filter paper, which were ingested by larvae. Activity may occur through both feeding and contact. Four replicates were run per data point. Activity was assessed at 24 hours.

As a reminder, the mortality is the percentage killed. High values mean fewer survivors, low ones more survivors.

Take `CCOP(=S)(OCC)Oc1nc(Cl)c(Cl)cc1Cl` [Chloropyriphos]: the “Number dead flies at 2 hours” value in assay [1] (Rate 1 ppm in blood agar) is listed as 0; in assay [1] (Rate 10 ppm in blood agar), 1; in assay [1] (Rate 25 ppm in blood agar), 3; in assay [1] (Rate 50 ppm in blood agar), 4; in assay [1] (Rate 100 ppm in blood agar), 4. For the same molecule, the “Number dead flies at 4 hours” value in assay [1] (Rate 1 ppm in blood agar) is given as 1; in assay [1] (Rate 10 ppm in blood agar), 4; in assay [1] (Rate 25 ppm in blood agar), 4; in assay [1] (Rate 50 ppm in blood agar), 4; in assay [1] (Rate 100 ppm in blood agar), 4. Moreover, the “Number dead flies at 24 hours” value in assay [1] (Rate 1 ppm in blood agar), in assay [1] (Rate 10 ppm in blood agar), in assay [1] (Rate 25 ppm in blood agar), in assay [1] (Rate 50 ppm in blood agar) and in assay [1] (Rate 100 ppm in blood agar) was 4 throughout.
Regarding `N#Cc1nn(-c2c(Cl)cc(C(F)(F)F)cc2Cl)c(N)c1[S+]([O-])C(F)(F)F` (stereo not drawn) [Fipronil, (.+−.)-5-amino-1-(2,6-dichloro-α,α,α-triflu-oro-p-tolyl)-4-trifluoromethyl-sulphinylpyrazol-3-carbonitrile, reference compound], in assay [2], the mortality at 0.5 ppm is 90 to 100%.
As to `CNC(=O)c1cc(C#N)cc(C)c1NC(=O)c1cc(Br)nn1-c1ncccc1Cl` [Test compound, 3-bromo-1-(3-chloro-2-pyridinyl)-N-[4-cyano-2-methyl-6-[(methylamino)-carbonyl]phenyl]-1H-pyrazole-5-carboxamide], the “Number dead flies at 2 hours” value in assay [1] (Rate 1 ppm in blood agar), in assay [1] (Rate 10 ppm in blood agar), in assay [1] (Rate 25 ppm in blood agar), in assay [1] (Rate 50 ppm in blood agar) and in assay [1] (Rate 100 ppm in blood agar) was 0 in each case. Also, the “Number dead flies at 4 hours” value in assay [1] (Rate 1 ppm in blood agar), in assay [1] (Rate 10 ppm in blood agar), in assay [1] (Rate 25 ppm in blood agar), in assay [1] (Rate 50 ppm in blood agar) and in assay [1] (Rate 100 ppm in blood agar) was 0 each time. The “Number dead flies at 24 hours” value in assay [1] (Rate 1 ppm in blood agar) worked out at 0; in assay [1] (Rate 10 ppm in blood agar) it was 1; in assay [1] (Rate 25 ppm in blood agar) it was 2; in assay [1] (Rate 50 ppm in blood agar) it was 3; in assay [1] (Rate 100 ppm in blood agar) it was 3. In addition, the mortality at 0.5 ppm in assay [2] was in the range of 90 to 100%.
